Source: patent EP0195147A1, “Trihalo(amine)gold(III) complexes” (ENGELHARD CORPORATION, priority 1985, dated 1986)
Where “and” joins values, the source holds several entries; their conditions need not be identical. Equal entries are not always repeated.

How the values were obtained:
S 180 ascites = assay: Anti-tumor screening against S 180 ascites (% increase in life span); format: in vivo, female CFW Swiss mice; details: for Survivors: survivors on day of evaluation (twice the mean life span of the control)
Protocol: The above prepared compounds were evaluated against §180 ascites in female CFW Swiss mice. The mice were weighed (average weight: 20 g), placed into cages (six mice to a cage) and on day zero the mice were inoculated with 0.2 ml of a freshly prepared saline suspension (0.15 M NaCl) containing 1 x 10^7 tumor cells/ml or a total of 2 x 10^6 cells. This inoculum was freshly prepared using "transfer" mice which had been injected with tumor cells the previous week; it was obtained via the following steps: (1) the removal of cells from the peritoneal cavity of the sacrificed transfer mouse, (2) alternate centrifugation and washing operations (2-3 times with cold saline) to remove blood and other components, and (3) dilution of the volume of the packed cell with saline (1:3). A final centrifugation was carried out at 1000 RPM over a two minute period. A cell count was made on a 2,000-fold dilution of this 1:3 suspension by means of a Coulter Counter. A final dilution to […] cells/ml was made based on the average count.
On day 1, solutions of the test compounds were prepared and each mouse in a set of six were injected with the same test compound at the same dosage. The doses were based on the average weight of the animals (cage weight). Also, beginning on day 1 two controls were employed containing six mice per control; • (1) Normal Control: This consisted solely of the carrier or diluent used in combination with the test compound; and • (2) Positive Control: This consisted solely of the known anti-tumor agent cis-[Pt(NH3)2C12] (Cisplatin) in saline (8 mg/kg) to test the response of the
The effectiveness of a test compound was measured in terms of the % increase in life span (%ILS) of the test mice relative to the Normal Control (Calculated from the day of tumor inoculation, ie., day zero). To standardize the test data and permit intercomparisons, the day of evaluation was arbitrarily taken as that day corresponding to twice the mean life span (or average day of death) of the control. This established a practical upper limit of 100% on the %ILS attainable. For calculation purposes the survivors on the day of evaluation were considered to have died on that day. The %ILS was calculated as follows: [formula] ILS values in excess of 50% were interpreted as being indicative of anti-tumor activity, whereas, values in excess of 75% indicated excellent activity.
The products of Examples 1, 4, 10 and 11 were administered in a freshly prepared 1% sodium bicarbonate solution; the remaining test compounds were administered as slurries in 0.5% "Klucel" (hydroxypropylcellulose). All products (I) are insoluble in water.

[1] = tested on: implanted Sarcoma 180 tumors; details: value attributed to commercially available Cisplatin; cited from earlier work
[2] = Therapeutic indices, ED90 and LD50 by the method of Miller and Tainter; design: species or system Swiss white mice; details: mouse, in vivo; for selectivity ratio: LD50/ED90, read-out: Therapeutic Index; for LD50: lethal dose to 50% of the animals
Protocol: The therapeutic indices for the present compounds (I), their effective dose (ED90) and lethal dose (LD50) were determined according to the method of Miller and Tainter (Reported by R. A. Turner, "Screening Methods in Pharmacology", Academic Press, New York, pages 61-62 (1976)).

Solubility = format: physicochemical; details: 1% sodium bicarbonate solution; read-out: soluble in 1% sodium bicarbonate solution to the extent of

SMILES	Positive Control Survivors (S 180 ascites; Cisplatin in saline, 8 mg/kg, run alongside the example of the same table line, listed as Positive Control)	Therapeutic Index [1]	Survivors (S 180 ascites; Dose 10 mg/kg)	Survivors (S 180 ascites; Dose 20 mg/kg)	Survivors (S 180 ascites; Dose 40 mg/kg)	Survivors (S 180 ascites; Dose 80 mg/kg)	Survivors (S 180 ascites; Dose 160 mg/kg)	Survivors (S 180 ascites; Dose 320 mg/kg)	selectivity ratio [2]	LD50 [2] [mg/kg]	Survivors (S 180 ascites; Dose 5 mg/kg)	anti-tumor activity (in words) (S 180 ascites; within the 20-40 mg/kg range)	solubility (Solubility) [mg/mL]	anti-tumor activity (in words) (S 180 ascites; 50% ILS criterion, all doses tested)
N.N.[Cl][Pt][Cl] [Cisplatin, cis-[Pt(NH3)2C12], reference compound]	0 of 6 and 4 of 6 and 1 of 6 and 6 of 6	2.2-2.5	–	–	–	–	–	–	–	–	–	–	–	–
OCc1ccc[n+]([Au-]([Cl])([Cl])[Cl])c1 [Ex. 6]	–	–	0 of 6	1 of 6	3 of 6	0 of 6	0 of 6	0 of 6	2.1	90	–	–	–	–
Cn1cc[n+]([Au-]([Cl])([Cl])[Cl])c1 [Ex. 2, Trichloro(N-Methylimidazole)Gold(III)]	–	–	0 of 6	1 of 6	4 of 6	1 of 6	0 of 6	–	2.8	90	0 of 6	decidedly active	–	–
O=C(O)Cc1ccc[n+]([Au-]([Cl])([Cl])[Cl])c1 [Ex. 4, trichloro-(3-pyridyacetic acid)gold(III)]	–	–	0 of 6	0 of 6	1 of 6	1 of 6	0 of 6	0 of 6	1.8	150	–	–	12.8	–
Cn1cc[n+]([Au-]([Br])([Br])[Br])c1 [Ex. 9, Tribromo(N-Methylimidazole)Gold(III)]	–	–	0 of 6	4 of 6	3 of 6	1 of 6	0 of 6	0 of 6	2	85	–	–	–	–
O=C(O)c1ccc[n+]([Au-]([Cl])([Cl])[Cl])c1 [Ex. 1, Trichloro(Nicotinic Acid)Gold(III)]	–	–	0 of 6	3 of 6	3 of 6	4 of 6	0 of 6	0 of 6	5.8	180	–	–	12.8	–
O=C(O)Cc1ccc[n+]([Au-]([Cl])([Cl])[Cl])c1 [trichloro-(3-pyridyacetic acid)gold(III)]	–	–	–	–	–	–	–	–	–	–	–	–	–	pronounced anti-tumor effect
Oc1ccc[n+]([Au-]([Cl])([Cl])[Cl])c1 [Ex. 5]	–	–	0 of 6	2 of 6	3 of 6	2 of 6	0 of 6	0 of 6	–	–	–	–	–	–
[Cl][Au-]([Cl])([Cl])[n+]1ccccc1 [Ex. 7, trichloro(pyridine)gold(III)]	–	–	3 of 6	2 of 6	3 of 6	2 of 6	0 of 6	0 of 6	–	–	–	–	–	–
O=C(O)Cc1ccc[n+]([Au-]([Br])([Br])[Br])c1 [Ex. 11, tribromo(3-pyridylacetic acid)gold(III)]	–	–	0 of 6	0 of 6	0 of 6	1 of 6	0 of 6	0 of 6	–	–	–	–	12.8	–
CC(=O)c1ccc[n+]([Au-]([Cl])([Cl])[Cl])c1 [Ex. 3, trichloro(3-acetylpyridine)gold(III)]	–	–	0 of 6	1 of 6	5 of 6	4 of 6	0 of 6	0 of 6	4.5	140	–	–	–	–
[Cl][Au-]([Cl])([Cl])[n+]1cc[nH]c1 [Ex. 8, trichloro(imidazole)gold(III)]	–	–	0 of 6	1 of 6	0 of 6	1 of 6	2 of 6	–	–	–	0 of 6	–	–	–
O=C(O)c1ccc[n+]([Au-]([Br])([Br])[Br])c1 [Ex. 10]	–	–	0 of 6	0 of 6	2 of 6	0 of 6	0 of 6	0 of 6	–	–	–	–	12.8	–
